Reference: PMC7721803, “Development of a penem antibiotic against Mycobacteroides abscessus” (Communications Biology, 2020)
Converted amounts (≈) assume the structure as drawn. Like-named read-outs stand apart in the source and are kept apart here.

Assays:
M. abscessus = test: MIC by broth dilution method (Middlebrook 7H9); format: cell-based, Mycobacteroides abscessus; conditions: for MIC50 / MIC90: clinical M. abscessus strains of Table 1; for MIC50: read-out: MIC50; for MIC90: read-out: MIC90
[1] = cited from earlier work
M. abscessus ATCC 19977 = format: cell-based, Mycobacteroides abscessus; conditions: drug alone at its individual MIC (T405 2 µg/mL, imipenem 8 µg/mL)
in vivo = test: in vivo; design: species or system BALB/c mice; conditions: female, BALB/c, mouse, 25 mg/kg, T405 concentration in blood
Experimental: All procedures involving mice were approved by the Animal Care and Use Committee of Johns Hopkins University. […] Blood was sampled from three mice per group per time point by mandibular vein puncture or cardiac puncture at the following time points: 5, 15, 30, 60, 120, and 240 min post-dose. Plasma was separated in heparin-containing tubes and frozen. […] Concentration–time data were analyzed by standard non-compartmental and compartmental techniques using WinNonlin (version 7.0; Pharsight, Mountain View, CA). A one-compartmental model was used to perform simulations to predict the plasma concentration–time profile after subcutaneous doses of 150, 300, and 450 mg/kg, alone and in combination with probenecid. A plasma free drug fraction of 2% of the total drug concentration was included in the simulations.

[2] = Mycobacteroides abscessus, ATCC19977, reference strain ATCC 19977, read-out: MIC
[3] = Mycobacteroides abscessus, clinical isolate 1N, read-out: MIC
[4] = Mycobacteroides abscessus, clinical isolate 2N, read-out: MIC
[5] = Mycobacteroides abscessus, clinical isolate 3N, read-out: MIC
[6] = Mycobacteroides abscessus, clinical isolate 4N, read-out: MIC
[7] = Mycobacteroides abscessus, clinical isolate 5N, read-out: MIC
[8] = Mycobacteroides abscessus, clinical isolate 8N, read-out: MIC
[9] = Mycobacteroides abscessus, clinical isolate 11N, read-out: MIC
[10] = Mycobacteroides abscessus, clinical isolate 13N, read-out: MIC
[11] = Mycobacteroides abscessus, clinical isolate 14N, read-out: MIC
[12] = Mycobacteroides abscessus, clinical isolate 202, read-out: MIC
[13] = Mycobacteroides abscessus, clinical isolate 203, read-out: MIC
[14] = Mycobacteroides abscessus, clinical isolate 204, read-out: MIC
[15] = Mycobacteroides abscessus, clinical isolate 214, read-out: MIC
[16] = Mycobacteroides abscessus, clinical isolate 215, read-out: MIC
[17] = Mycobacteroides abscessus, clinical isolate JH1801, read-out: MIC
[18] = Mycobacteroides abscessus, clinical isolate JH1802, read-out: MIC
[19] = Mycobacteroides abscessus, clinical isolate JHH2, read-out: MIC
[20] = Mycobacteroides abscessus, clinical isolate JHH4, read-out: MIC
[21] = Mycobacteroides abscessus, clinical isolate JHH9, read-out: MIC
[22] = Mycobacteroides abscessus, clinical isolate JHHKB, read-out: MIC

SMILES	MIC (M. abscessus; [2]) [µg/mL]	MIC (M. abscessus; [3]) [µg/mL]	MIC (M. abscessus; [4]) [µg/mL]	MIC (M. abscessus; [5]) [µg/mL]	MIC (M. abscessus; [6]) [µg/mL]	MIC (M. abscessus; [7]) [µg/mL]	MIC (M. abscessus; [8]) [µg/mL]	MIC (M. abscessus; [9]) [µg/mL]	MIC (M. abscessus; [10]) [µg/mL]	MIC (M. abscessus; [11]) [µg/mL]	MIC (M. abscessus; [12]) [µg/mL]	MIC (M. abscessus; [13]) [µg/mL]	MIC (M. abscessus; [14]) [µg/mL]	MIC (M. abscessus; [15]) [µg/mL]	MIC (M. abscessus; [16]) [µg/mL]	MIC (M. abscessus; [17]) [µg/mL]	MIC (M. abscessus; [18]) [µg/mL]	MIC (M. abscessus; [19]) [µg/mL]	MIC (M. abscessus; [20]) [µg/mL]	MIC (M. abscessus; [21]) [µg/mL]	other results
C[C@@H](O)[C@H]1C(=O)N2C(C(=O)O)=C([C@H]3CCCO3)S[C@H]12 [Faropenem]	512 (≈ 1790 µM)	256 (≈ 897 µM)	256 (≈ 897 µM)	256 (≈ 897 µM)	256 (≈ 897 µM)	512 (≈ 1790 µM)	512 (≈ 1790 µM)	512 (≈ 1790 µM)	64 (≈ 224 µM)	512 (≈ 1790 µM)	512 (≈ 1790 µM)	128 (≈ 449 µM)	512 (≈ 1790 µM)	128 (≈ 449 µM)	512 (≈ 1790 µM)	512 (≈ 1790 µM)	256 (≈ 897 µM)	512 (≈ 1790 µM)	512 (≈ 1790 µM)	512 (≈ 1790 µM)	MIC (M. abscessus; [22]): 512 µg/mL (≈ 1790 µM); MIC50 (M. abscessus; Mycobacteroides abscessus): 512 µg/mL (≈ 1790 µM); MIC90 (M. abscessus; Mycobacteroides abscessus): 512 µg/mL (≈ 1790 µM); half-life in mice [1]: 11.4 min
C[C@@H](O)[C@H]1C(=O)N2C(C(=O)O)=C(SCCN=CN)C[C@H]12 [Imipenem]	8 (≈ 26.7 µM)	8 (≈ 26.7 µM)	8 (≈ 26.7 µM)	8 (≈ 26.7 µM)	16 (≈ 53.4 µM)	16 (≈ 53.4 µM)	32 (≈ 107 µM)	32 (≈ 107 µM)	8 (≈ 26.7 µM)	32 (≈ 107 µM)	16 (≈ 53.4 µM)	32 (≈ 107 µM)	32 (≈ 107 µM)	8 (≈ 26.7 µM)	16 (≈ 53.4 µM)	16 (≈ 53.4 µM)	16 (≈ 53.4 µM)	32 (≈ 107 µM)	16 (≈ 53.4 µM)	16 (≈ 53.4 µM)	MIC (M. abscessus; [22]): 256 µg/mL (≈ 855 µM); MIC50 (M. abscessus; Mycobacteroides abscessus): 16 µg/mL (≈ 53.4 µM); MIC90 (M. abscessus; Mycobacteroides abscessus): 32 µg/mL (≈ 107 µM); Resistance frequency (M. abscessus ATCC 19977): 1.9 × 10^−7
C[C@@H](O)[C@@H]1C(=O)N2C(C(=O)O)=C(SC3CN(C4=NCCS4)C3)S[C@@H]12 [T405]	–	–	–	–	–	–	–	–	–	–	–	–	–	–	–	–	–	–	–	–	concentration at 5 min (in vivo): 169 ng/mL; concentration at 0.25 h (in vivo): 157 ng/mL; concentration at 0.5 h (in vivo): 143 ng/mL; concentration at 1 h (in vivo): 65 ng/mL; concentration at 2 h (in vivo): 25.1 ng/mL
NC(=O)[C@@H]1CC[C@@H]2CN1C(=O)N2OS(=O)(=O)O [avibactam]	–	–	–	–	–	–	–	–	–	–	–	–	–	–	–	–	–	–	–	–	MIC (M. abscessus; reference strain ATCC 19977): 256 µg/mL (≈ 965 µM)
